“Also recorded” adds a separate entry of the source.
Key:
ACK-1 = target: T1, ACK-1 (Mus musculus, UniProt O54967); experiment: ACK-1 autophosphorylation in v-Ha-Ras-transformed cells (immunoprecipitation, anti-phosphotyrosine Western blot); type: cell-based; conditions: 25 μmol/L, 48 hours, FIG. 5A
T1 construct: endogenous in cells; host or cells: v-Ha-Ras-transformed NIH 3T3 cells (and parental NIH 3T3 in the siRNA experiment)
Experimental: For immunoprecipitation, cells (2×10^6 per sample) were lysed in a buffer containing 1% Triton X-100, 20 mmol/L HEPES (pH 7.4), 150 mmol/L NaCl, 10% glycerol, 1.5 mmol/L MgCl2, 1 mmol/L EGTA, 10 mmol/L sodium pyrophosphate, 0.2 mmol/L sodium orthovanadate, 50 mmol/L NaF, 0.5 mg/mL phenylmethylsulfonyl fluoride, and 0.5 μg/mL aprotinin. Each lysate was incubated with ACK-1 antibody (10 μg/sample) for 4 hours at 4° C. Protein A-Sepharose CL-4B (50 μL) was added to the lysate followed by additional incubation for 2 hours at 4° C. Sepharose beads were collected by centrifugation at 1,000×g for 5 minutes (Eppendorf microfuge). The pellets were washed thrice with lysis buffer using the same protocol. Protein bound to Sepharose beads was recovered in Laemmli SDS sample buffer. […]
To study the effects of ACK on cell proliferation, 2×10^4 cells per well were seeded into 24-well plates and cultured under standard cell culture conditions. […] Cell numbers were counted with a hemocytometer. […]
(§1) The effect of PD158780 and PD157432 on the phosphorylation of ACK-1 was investigated. v-Ha-Ras-transformed cells were cultured in DMEM containing 10% FCS. […] For growth inhibition studies, cells were trypsinized and counted every 24 hours. […]

[1] = target: T2, ACK-1 kinase (GST-ACKD, amino acids 101-441) (Homo sapiens, UniProt Q07912); experiment: In vitro kinase assay of GST-ACKD with MBP as substrate; type: biochemical; conditions: FIG. 4C dose response, FIG. 4D inhibitors at 200 nmol/L
T2 construct: made in house; host or cells: Escherichia coli BL21 (pGEX-2TH vector)
Experimental: Escherichia coli BL21 cells transformed with pGEX-ACKD were grown at 30° C. to early logarithmic phase and protein expression was induced by adding 0.1 mmol/L isopropyl-L-thio-β-D-galactopyranoside. After 3 hours of incubation, cells were harvested, resuspended in lysis buffer [50 mmol/L Tris (pH 7.5), 0.73 mol/L sucrose, 5 mmol/L MgCl2, 0.5% (v/v) NP40], and disrupted by sonication. Cells were centrifuged at 10,000×g for 30 minutes at 4° C. The supernatant was applied to the glutathione-Sepharose column equilibrated with WED buffer [20 mmol/L Tris (pH 7.5), 2 mmol/L MgCl2, 1 mmol/L DTT] followed by washing with WED buffer. GST-ACKD was eluted with 5 mmol/L glutathione solution in 50 mmol/L Tris (pH 9.6). The eluate was dialyzed in WED buffer overnight and concentrated on a sucrose gradient. The expected size of the fusion protein (GST-ACKD) was confirmed by SDS-PAGE (data not shown), and the protein was used for kinase assays as described below.
The purified GST-ACKD (˜5 μg per reaction) was incubated in kinase reaction buffer [50 mmol/L HEPES-KOH (pH 7.2), 10 mmol/L magnesium acetate, 5 mmol/L DTT] containing 7.5 μg MBP, 100 μmol/L ATP, and 4 μCi [γ-^33P]ATP for 10 minutes at 30° C. Reactions were stopped by addition of 5× Laemmli SDS sample buffer. Proteins were separated by SDS-PAGE, and radioactivity incorporated into the substrate was quantified by using the Kodak Imaging Station 2000R. For kinase inhibition experiments, GST-ACKD was preincubated with individual inhibitors in kinase buffer or kinase buffer alone (control) before the addition of MBP following the same protocol as described above. Experiments were done in triplicate.
Several compounds were screened to examine their potency in inhibiting the kinase activity of ACK in vitro. […]
Different kinase inhibitors were added to the ACK-1 kinase reaction as described above in General Procedures. Phosphorylation of MBP was determined by SDS-PAGE and autoradiography. The level of MBP phosphorylation was determined by scanning MBP bands using Kodak Imaging Station 2000R and plotted as arbitrary units. […]

[2] = tested on: v-Ha-Ras-transformed NIH 3T3 cells; experiment: Growth of v-Ha-Ras-transformed cells treated with kinase inhibitors (cell counting); type: cell-based; conditions: kinase inhibitor added after overnight culture; cells counted (every 24 hours or after 48 hours)
Experimental: To study the effects of ACK on cell proliferation, 2×10^4 cells per well were seeded into 24-well plates and cultured under standard cell culture conditions. After overnight culture, individual kinase inhibitors (at indicated concentration) or DMSO (control) were added to the culture. Cells were collected by trypsinization after 48 hours. Cell numbers were counted with a hemocytometer. To study ACK phosphorylation, cells were lysed with a buffer containing 1% Triton X-100, 20 mmol/L HEPES (pH 7.4), 150 mmol/L NaCl, 10% glycerol, 1.5 mmol/L MgCl2, 1 mmol/L EGTA, 10 mmol/L sodium pyrophosphate, 0.2 mmol/L sodium orthovanadate, 50 mmol/L NaF, 0.5 mg/mL phenylmethylsulfonyl fluoride, and 0.5 μg/mL aprotinin. Total protein (˜1 mg) was used for immunoprecipitation of ACK-1.
as §1, with “FCS. Cells were treated with solvent (DMSO), PD 158780 (25 μmol/L), or PD157432 (25 μmol/L) for 48 hours. Cells were incubated under standard cell culture conditions.” for “FCS.”
The effect of ST021169 and ST038325 on v-Ha-Ras-transformed NIH 3T3 cell growth was investigated. […] After 48 hours, the cells were trypsinized and counted with a hemocytometer. […]

T2 sequence (Q07912 38-378 H250G): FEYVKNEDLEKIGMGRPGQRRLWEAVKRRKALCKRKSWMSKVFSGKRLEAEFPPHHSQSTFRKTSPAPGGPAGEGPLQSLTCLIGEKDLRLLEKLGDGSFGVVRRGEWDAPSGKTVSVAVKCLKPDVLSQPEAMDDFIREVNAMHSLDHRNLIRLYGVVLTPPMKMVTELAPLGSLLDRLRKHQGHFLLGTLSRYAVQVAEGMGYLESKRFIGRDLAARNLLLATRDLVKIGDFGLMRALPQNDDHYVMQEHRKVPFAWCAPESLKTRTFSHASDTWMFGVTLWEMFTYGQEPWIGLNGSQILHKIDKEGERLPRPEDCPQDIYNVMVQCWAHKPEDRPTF
T1 sequence (O54967 whole entry): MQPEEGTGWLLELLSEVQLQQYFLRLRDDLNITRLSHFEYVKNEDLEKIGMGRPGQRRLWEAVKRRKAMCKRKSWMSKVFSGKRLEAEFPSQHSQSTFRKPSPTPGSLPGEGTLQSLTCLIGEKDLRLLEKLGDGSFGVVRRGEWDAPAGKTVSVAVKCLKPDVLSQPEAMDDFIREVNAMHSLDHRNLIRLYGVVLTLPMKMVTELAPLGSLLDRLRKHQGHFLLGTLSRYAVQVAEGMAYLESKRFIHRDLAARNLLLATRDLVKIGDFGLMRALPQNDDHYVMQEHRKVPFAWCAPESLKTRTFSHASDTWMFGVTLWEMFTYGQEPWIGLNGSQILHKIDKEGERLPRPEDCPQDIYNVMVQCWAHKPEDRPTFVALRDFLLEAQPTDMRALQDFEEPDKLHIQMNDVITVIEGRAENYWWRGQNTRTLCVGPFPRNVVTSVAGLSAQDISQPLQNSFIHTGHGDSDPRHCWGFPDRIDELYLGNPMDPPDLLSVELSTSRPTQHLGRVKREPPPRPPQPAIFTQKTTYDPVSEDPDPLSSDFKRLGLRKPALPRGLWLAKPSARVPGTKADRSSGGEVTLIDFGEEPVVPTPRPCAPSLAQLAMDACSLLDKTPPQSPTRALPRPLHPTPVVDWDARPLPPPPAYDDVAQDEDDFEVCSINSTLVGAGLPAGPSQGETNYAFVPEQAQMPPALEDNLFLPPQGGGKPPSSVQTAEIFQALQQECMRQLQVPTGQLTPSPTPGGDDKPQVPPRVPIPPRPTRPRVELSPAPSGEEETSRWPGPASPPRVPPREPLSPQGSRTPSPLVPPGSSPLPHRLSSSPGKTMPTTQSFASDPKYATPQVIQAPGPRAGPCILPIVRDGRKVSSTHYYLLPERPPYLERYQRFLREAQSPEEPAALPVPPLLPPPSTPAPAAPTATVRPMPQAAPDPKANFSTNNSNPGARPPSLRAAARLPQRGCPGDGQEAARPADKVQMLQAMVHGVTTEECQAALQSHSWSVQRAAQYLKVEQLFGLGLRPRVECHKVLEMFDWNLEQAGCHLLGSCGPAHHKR

Compound: CNc1cc2c(Nc3cccc(Br)c3)ncnc2cn1 [PD158780]
- inhibition of ACK-1 autophosphorylation (ACK-1): inhibited ACK-1 autophosphorylation to a much stronger extent than did PD157432
- inhibition of kinase activity of ACK (MBP phosphorylation) [1]: inhibited ACK strongly and in a dose-dependent manner; also recorded: strongest inhibitory activity
- inhibition of v-Ha-Ras-transformed NIH 3T3 cell growth [2]: inhibited in a dose-dependent manner
